Legend:
ATP7B H1069Q = assay: Morphological assay of ATP7B H1069Q exit from ER to Golgi in HeLa cells (fluorescence microscopy); assay type: cell-based, human; conditions: ATP7B H1069Q; JNKi II 5 μM, 48 h; HeLa cells; fraction of protein in Golgi by fluorescence microscopy; DMSO control 32
Description: Cells were transfected with ATP7B-WT-GFP or ATP7B-H1069Q-GFP, incubated overnight with 200 μM BCS and/or drugs. Fixed cells were further labeled for TGN46 to mark and visualize the Golgi area under a confocal microscope. Under low copper conditions ATP7B-WT traffics to the Golgi from the ER, while ATP7B-H1069Q is retained within the ER. If the drug treatments induce the rescue of trafficking from the ER to the Golgi, the ATP7B-H1069Q-GFP fluorescence in the Golgi area increases. This is measured by quantifying (in 10 different microscopy fields in 100 cells) the increased in fluorescence of ATP7BWT-GFP or ATP7BH1069Q-GFP in the Golgi area (marked by TGN46) and normalizing this value to total cell fluorescence
CFBE or HeLa cells (in case of ATP7B) were transfected with constructs encoding the indicated mutant proteins and treated with JNKi II for 48 h.

NCC mutant (R948X) = assay: Proteostasis of NCC mutant in transfected CFBE cells (western blotting); assay type: cell-based
Description: (§1) C. CFBE cells were treated with 5 μM oxozeaenol for 48 h, or with MLK3 siRNA, or with both, and the correction of the F508del-CFTR folding/trafficking defect was monitored by changes in the levels of band C. There was no additive effect observed with the combination of MLK3 downregulation and oxozeaenol treatment. The quantitated band C levels are expressed as mean±SD (n>3). D. CFBE cells were treated with 5 μM oxozeaenol for 24 h, and the activity of the JNK pathway was measured by western blotting for phospho c-jun levels and F508del-CFTR. […] E. CFBE cells were treated with flunarizine (at concentrations 6.25-50 μM) targeting the CAMKK2 pathway for 48 h and the effect on F508del-CFTR proteostasis measured by western blotting. Treatment with flunarizine increased the levels of band C of F508del-CFTR. […] F. CFBE cells transiently transfected with the P-glycoprotein mutant (P-gp DY490), the NCC mutant (R948X), or the hERG mutant (G601S) were treated with JNKi II for 24 h, and the effect of the drug on their proteostasis monitored by western blotting.
(§2) The level of correction obtained with these inhibitors is higher than the effects of the corrector compounds from which the pathways were deduced (FIG. 3A), and similar to, or higher than, the effects of VX-809. […]

hERG mutant (G601S) = assay: Proteostasis of hERG mutant in transfected CFBE cells (western blotting); assay type: cell-based, human
Description: as §1, §2

[1] = tested on: P-glycoprotein mutant (P-gp DY490); assay: Proteostasis of P-glycoprotein mutant in transfected CFBE cells (western blotting); assay type: cell-based
Description: as §1, §2

ATP7B R778L = ATP7B R778L translocation from ER to Golgi in HeLa cells (fluorescence microscopy); assay type: cell-based, human; conditions: JNKi II 5 μM, 48 h, fraction of protein in Golgi by fluorescence microscopy, DMSO control 12
Description: Inventors next examined the effects of the MLK3 pathway inhibition on the proteostasis of other conformational disease mutants. Inventors transfected CFBE (and HeLa) cells with different conformational mutants (i.e., Sodium-chloride symporter [NCC, [MUT] mutant]; P-glycoprotein, [P-gp, [MUT] and DY490 mutants]; human Ether-a-go-go-Related Gene [hERG, [MUT] mutant]; Wilson's disease associated protein [ATP7B, [MUT] and [MUT] mutants]) and then treated cells with JNKi II and monitored these proteins by assessing changes in their glycosylation patterns (NCC, P-gp, hERG mutants) or in their intracellular movement from the ER to the Golgi complex (ATP7B mutants). […] CFBE or HeLa cells (in case of ATP7B) were transfected with constructs encoding the indicated mutant proteins and treated with JNKi II for 48 h.

F508del-CFTR = F508del-CFTR proteostasis by western blotting (ER band B / Golgi-processed band C) in CFBE cells; assay type: cell-based, human; conditions: 48 h, concentration series
Description: Cells were washed three times in ice-cold Dulbecco's phosphate-buffered saline, and lysed in RIPA buffer (150 mM NaCl, 1% Triton X-100, 0.5% deoxycholic acid, 0.1% SDS, 20 mM Tris-HCl, pH 7.4), supplemented with protease inhibitor cocktail and phosphatase inhibitors. The lysates were clarified by centrifugation at 15000×g for 15 min, and the supernatants were resolved by SDS-PAGE. BCA Protein Assay kit (Pierce) was used to quantitate protein levels before loading. The western blots were decorated with appropriate antibodies and developed using ECL. The blots were then exposed to x-ray films and exposure time was varied to obtain optimal signal. The x-ray films were then scanned and the bands were quantitated using ImageJ gel-analysis tool. The protein concentration and the exposures used for quantitation of the blots were optimized to be in a linear range of detection.
Inventors then turned to experimental validation of the role of the CORE genes in the regulation of F508del-CFTR proteostasis. Experiments were carried out using a characterised biochemical assay that detects both the amount of core-glycosylated CFTR trapped in the ER (band B with Western blotting) and the amount of CFTR fully glycosylated in the Golgi (most of which presumably resides at the PM; band C with Western blotting).

ATP7BH1069Q = assay: Immunofluorescence assay for correction of ATP7B: cells with ATP7BH1069Q signal in the ER, HeLa cells; assay type: cell-based, human; conditions: 24 h, SB202190 5 μM, VX-745 1 μM, SP600125 2 μM, Oxozeaenol 5 μM, 100 μM CuSO4 2 h
Description: (A) HeLa cells were infected with Ad-ATP7BWT-GFP (Chesi et al., 2016) or Ad-ATP7BH1069Q-GFP, incubated overnight with 200 μM BCS, and incubated for an additional 2 h with 100 μM CuSO4. In response to Cu, ATP7BWT traffics from the Golgi to PM and vesicle, while ATP7BH1069Q are retained within the ER under high Cu conditions. Addition of p38 inhibitor SB202190 (5 μM), VX-745(1 μM), JNK inhibitor SP600125 (2 μM) and Oxozeaenol (5 μM) (as indicated in corresponding panels) to the cells 24 h corrects ATP7BH1069Q from the ER to PM and vesicles (arrows) (B) Cells were treated as in panel A. The percentage of the cells (average±SD, n=50 fields) with an ATP7B signal in the ER, were calculated.
Cells were fixed with 4% paraformaldehyde in 0.2 M HEPES for 10 mins, permeabilized, labeled with primary and secondary antibodies, and examined with a ZEISS LSM 700 confocal microscope equipped with a 63×1.4 numerical aperture oil objective. The cells were scored based on the disappearance of ATP7B from the ER.

O=C1c2ccccc2-c2n[nH]c3cccc1c23 [JNKi II] was tested, and the “Correction (% of wild type)” value (ATP7B H1069Q) was 80 % of wild type, the “proteostasis of NCC mutant (R948X), levels of bands B and C” value (NCC mutant (R948X); JNKi II 24 h) was “enhanced degradation” and the “Correction (% of wild type)” value (NCC mutant (R948X); table row 'NCC G601S', JNKi II 5 μM, 48 h, protein processed by the Golgi, DMSO control 10) was 9 % of wild type. For the same compound, the “proteostasis of hERG mutant (G601S), levels of bands B and C” value (hERG mutant (G601S); JNKi II 24 h) was “enhanced degradation”, the “Correction (% of wild type)” value (hERG mutant (G601S); table row 'hERG R948X', JNKi II 5 μM, 48 h, protein processed by the Golgi, DMSO control 44) was 24 % of wild type and the “trafficking of P-gp DY490 out of the ER (Golgi-associated band C)” value ([1]; JNKi II 24 h) was “enhanced”. The “Correction (% of wild type)” value ([1]; P-Glycoprotein DY490, JNKi II 5 μM, 48 h, protein processed by the Golgi, DMSO control 24) was 44 % of wild type, the “Correction (% of wild type)” value (ATP7B R778L) was 40 % of wild type and the “levels of band B and band C of F508del-CFTR” value (F508del-CFTR) was “robust increases”. The “percentage of the cells exhibiting ATP7BH1069Q in the ER” value (ATP7BH1069Q) was “reduced”.
